Laboratory results: patent US10675360B2 (MADRIGAL PHARMACEUTICALS, INC., priority 2014, dated 2020)

Experiment: Stability in mouse plasma
Assay type: in vitro ADME
Conditions: 1 h
Procedure: SDC-TRAP-0022 and SDC-TRAP-0028 were incubated in human and mouse plasma for 2 h at 37° C. and assayed for integrity at 0.25, 0.5, 1 and 2 h. The values reported below are the remaining of the parent compound at the end of the 2 h incubation period.
This solution was used to precipitate all plasma samples in the study. 200 μL was pipetted into a 96 deepwell plate over dry ice. 10 μL of 1 mM stock in DMSO was added to a 1.5 mL microfuge tube, then 990 μL of plasma. Samples were mixed by vortex, then 50 μL of each sample was added in triplicate to a 96-well plate containing internal standard solution. This was designated the 0 hour time point sample. 250 μL of the remaining plasma sample was added to each of four 96 deepwell plates—one per time point. Samples were incubated at 37° C. with gentle shaking for 0.25, 0.5, and 1 hour. After each time point, one plate of each sample was removed from the shaker and placed on wet ice for approximately 2 minutes. 50 μL plasma aliquots (in triplicate) were added to the deepwell plate containing internal standard solution. After the last time point was extracted, the 96 deepwell plate was vortexed, then centrifuged at 2-8° C. 150 μL of supernatant was collected and 25 μL of water was added. Samples were mixed and analyzed by LC-MS/MS.
The stability of seven SDC-TRAP types in mouse plasma was measured as follows. 990 μL mouse plasma aliquots from a common stock were spiked with 10 μL of 1 mM stock of one of seven SDC-TRAP samples identified in the table below. Each sample was mixed and divided into 250 μL aliquots, each representing time points 0, 15 minutes, 30 minutes or 1 hour. At the prescribed time point, 3×50 μL samples were each mixed with 200 μL of methanol containing internal standard and held on dry ice until all time point samples were extracted. The samples collectively were vortex mixed for 1.5 minutes at 1500 rpm, then centrifuged at 4400 rpm for 10 minutes at 8° C.

Row | SMILES | % Remaining (mouse, plasma, 10 μM) [%] | % Remaining (mouse plasma, 37° C.) [%]
1 | CCNC(=O)c1nnc(-c2cc(C(C)C)c(O)cc2O)n1-c1ccc(Oc2ccc(C(=O)N3CCC(COC(=O)Nc4cccc5c4CN(C4CCC(=O)NC4=O)C5=O)CC3)cc2)cc1 (centres unmarked) [SDC-TRAP-0125, (1-(4-(4-(3-(2,4-Dihydroxy-5-isopropylphenyl)-5-(ethylcarbamoyl)-4H-1,2,4-triazol-4-yl)phenoxy)benzoyl)piperidin-4-yl)methyl (2-(2,6-dioxopiperidin-3-yl)-1-oxoisoindolin-4-yl)carbamate] | 99.4 | –
2 | CC(C)c1cc(-c2nnc(O)n2-c2ccc(CC(=O)N(C)CCOC(=O)Nc3cccc4c3CN(C3CCC(=O)NC3=O)C4=O)cc2)c(O)cc1O (centres unmarked) [SDC-TRAP-0127, 2-(2-(4-(3-(2,4-dihydroxy-5-isopropylphenyl)-5-hydroxy-4H-1,2,4-triazol-4-yl)phenyl)-N-methylacetamido)ethyl(2-(2,6-dioxopiperidin-3-yl)-1-oxoisoindolin-4-yl)carbamate] | 87.3 | –
3 | CCNC(=O)c1nnc(-c2cc(C(C)C)c(O)cc2O)n1-c1ccc(Oc2ccc(N(C)C(=O)Oc3ccc4nc5c(c(CC)c4c3)Cn3c-5cc4c(c3=O)COC(=O)[C@]4(O)CC)cc2)cc1 [SDC-TRAP-0145, (S)-4,11-diethyl-4-hydroxy-3,14-dioxo-3,4,12,14-tetrahydro-1H-pyrano[3′,4′:6,7]indolizino[1,2-b]quinolin-9-yl (4-(4-(3-(2,4-dihydroxy-5-isopropylphenyl)-5-(ethylcarbamoyl)-4H-1,2,4-triazol-4-yl)phenoxy)phenyl)(methyl)carbamate] | – | 14.1
4 | CCNC(=O)c1nnc(-c2cc(C(C)C)c(O)cc2O)n1-c1ccc(C(=O)N(C)CC(=O)Nc2cccc3c2CN(C2CCC(=O)NC2=O)C3=O)cc1 (centres unmarked) [SDC-TRAP-0147, 5-(2,4-dihydroxy-5-isopropylphenyl)-4-(4-((2-((2-(2,6-dioxopiperidin-3-yl)-1-oxoisoindolin-4-yl)amino)-2-oxoethyl)(methyl)carbamoyl)phenyl)-N-ethyl-4H-1,2,4-triazole-3-carboxamide] | 98.1 | –
5 | CC(C)c1cc(-c2nnc(O)n2-c2ccc(N3CCN(C(=O)c4ccc(COC(=O)Nc5cccc6c5CN(C5CCC(=O)NC5=O)C6=O)cc4)CC3)cc2)c(O)cc1O (centres unmarked) [SDC-TRAP-0156, 4-(4-(4-(3-(2,4-Dihydroxy-5-isopropylphenyl)-5-hydroxy-4H-1,2,4-triazol-4-yl)phenyl)piperazine-1-carbonyl)benzyl (2-(2,6-dioxopiperidin-3-yl)-1-oxoisoindolin-4-yl)carbamate] | 90.3 | –
6 | CC(C)c1cc(-c2nnc(O)n2-c2ccc(CN3CCN(C(=O)c4ccc(COC(=O)Nc5cccc6c5CN(C5CCC(=O)NC5=O)C6=O)cc4)CC3)c(F)c2)c(O)cc1O (centres unmarked) [SDC-TRAP-0157, 4-(4-(4-(3-(2,4-dihydroxy-5-isopropylphenyl)-5-hydroxy-4H-1,2,4-triazol-4-yl)-2-fluorobenzyl)piperazine-1-carbonyl)benzyl (2-(2,6-dioxopiperidin-3-yl)-1-oxoisoindolin-4-yl)carbamate] | 81.4 | –
7 | CCNC(=O)c1nnc(-c2cc(C(C)C)c(O)cc2O)n1-c1ccc(CN2CCC(C(=O)N[C@H](C(=O)Nc3cccc4c3CN(C3CCC(=O)NC3=O)C4=O)C(C)C)CC2)cc1 (stereo partly drawn) [SDC-TRAP-0163, 1-(4-(3-(2,4-dihydroxy-5-isopropylphenyl)-5-(ethylcarbamoyl)-4H-1,2,4-triazol-4-yl)benzyl)-N-((2S)-1-((2-(2,6-dioxopiperidin-3-yl)-1-oxoisoindolin-4-yl)amino)-3-methyl-1-oxobutan-2-yl)piperidine-4-carboxamide] | 93.0 | –
8 | CCNC(=O)c1nnc(-c2cc(C(C)C)c(O)cc2O)n1-c1ccc(CN2CCC(C(=O)N3CCC[C@H]3C(=O)Nc3cccc4c3CN(C3CCC(=O)NC3=O)C4=O)CC2)cc1 (stereo partly drawn) [SDC-TRAP-0164, 5-(2,4-dihydroxy-5-isopropylphenyl)-4-(4-((4-((2S)-2-((2-(2,6-dioxopiperidin-3-yl)-1-oxoisoindolin-4-yl)carbamoyl)pyrrolidine-1-carbonyl)piperidin-1-yl)methyl)phenyl)-N-ethyl-4H-1,2,4-triazole-3-carboxamide] | 98.0 | –
9 | CC(C)c1cc(-c2nnc(O)n2-c2ccc(CN3CCN(C(=O)Oc4ccc(COC(=O)Nc5cccc6c5CN(C5CCC(=O)NC5=O)C6=O)cc4)CC3)c(F)c2)c(O)cc1O (centres unmarked) [SDC-TRAP-0171, 4-((((2-(2,6-dioxopiperidin-3-yl)-1-oxoisoindolin-4-yl)carbamoyl)oxy)methyl)phenyl-4-(4-(3-(2,4-dihydroxy-5-isopropylphenyl)-5-hydroxy-4H-1,2,4-triazol-4-yl)-2-fluorobenzyl)piperazine-1-carboxylate] | 17.7 | –
10 | CCNC(=O)c1nnc(-c2cc(C(C)C)c(O)cc2O)n1-c1ccc(CN2CCC(C(=O)N3CCC(N(C)C(=O)Oc4ccc5nc6c(c(CC)c5c4)Cn4c-6cc5c(c4=O)COC(=O)C5(O)CC)CC3)CC2)cc1 (centres unmarked) [SDC-TRAP-0172, 4,11-diethyl-4-hydroxy-3,14-dioxo-3,4,12,14-tetrahydro-1H-pyrano[3′,4′:6,7]indolizino[1,2-b]quinolin-9-yl (1-(1-(4-(3-(2,4-dihydroxy-5-isopropylphenyl)-5-(ethylcarbamoyl)-4H-1,2,4-triazol-4-yl)benzyl)piperidine-4-carbonyl)piperidin-4-yl)(methyl)carbamate] | – | 74.7
11 | CCNC(=O)c1nnc(-c2cc(C(C)C)c(O)cc2O)n1-c1ccc(C(=O)N2CCN(c3cc(C)c(OC(=O)Nc4cccc5c4CN(C4CCC(=O)NC4=O)C5=O)c(C)c3)CC2)cc1 (centres unmarked) [SDC-TRAP-0178, 4-(4-(4-(3-(2,4-dihydroxy-5-isopropylphenyl)-5-(ethylcarbamoyl)-4H-1,2,4-triazol-4-yl)benzoyl)piperazin-1-yl)-2,6-dimethylphenyl (2-(2,6-dioxopiperidin-3-yl)-1-oxoisoindolin-4-yl)carbamate] | 82.0 | –
12 | CCNC(=O)c1nnc(-c2cc(C(C)C)c(O)cc2O)n1-c1ccc(Oc2ccc(C(=O)N3CCC(N(C)C(=O)Oc4ccc5nc6c(c(CC)c5c4)Cn4c-6cc5c(c4=O)COC(=O)C5(O)CC)CC3)cc2)cc1 (centres unmarked) [SDC-TRAP-0180, 4,11-Diethyl-4-hydroxy-3,14-dioxo-3,4,12,14-tetrahydro-1H-pyrano[3′,4′:6,7]indolizino[1,2-b]quinolin-9-yl (1-(4-(4-(3-(2,4-dihydroxy-5-isopropylphenyl)-5-(ethylcarbamoyl)-4H-1,2,4-triazol-4-yl)phenoxy)benzoyl)piperidin-4-yl)(methyl)carbamate] | – | 72.4
13 | CCNC(=O)c1nnc(-c2cc(C(C)C)c(O)cc2O)n1-c1ccc(CN2CCC(C(=O)N3CCN(C(=O)Oc4ccc5nc6c(c(CC)c5c4)Cn4c-6cc5c(c4=O)COC(=O)C5(O)CC)C(C)C3)CC2)cc1 (centres unmarked) [SDC-TRAP-0185, 4,11-diethyl-4-hydroxy-3,14-dioxo-3,4,12,14-tetrahydro-1H-pyrano[3′,4′:6,7]indolizino[1,2-b]quinolin-9-yl 4-(1-(4-(3-(2,4-dihydroxy-5-isopropylphenyl)-5-(ethylcarbamoyl)-4H-1,2,4-triazol-4-yl)benzyl)piperidine-4-carbonyl)-2-methylpiperazine-1-carboxylate] | – | 68.1
14 | CCc1c2c(nc3ccc(OC(=O)N4CCC(Cn5ccc6cc(-n7c(O)nnc7-c7cc(C(C)C)c(O)cc7O)ccc65)CC4)cc13)-c1cc3c(c(=O)n1C2)COC(=O)C3(O)CC (centres unmarked) [SDC-TRAP-0186] | – | 57.9
